# Measurements published in PMC12505664, “Enflicoxib for the long-term management of canine osteoarthritis—External validation of a population pharmacokinetic model in dogs with osteoarthritis” (Frontiers in Veterinary Science, 2025).
# Like-named read-outs stand apart in the source and are kept apart here.
# Key:
# [1] = overdose study, repeated weekly administrations, Beagle dogs; cited from earlier work
# [2] = system: canine osteoarthritis; parameters: method as in Salichs et al., Vet Rec. 2022; conditions: ref Salichs et al., Vet Rec. 2022, cited from earlier work; for Number of animals presenting AEs (%): Emesis or nausea: AEs classified A, B or O; for Emesis and nausea: Number of events: AEs related to the GI system
# [3] = system: dogs with OA; assay: Safety assessment in the field clinical study (hematology, biochemistry, urine, adverse events); assay type: in vivo, client-owned dogs with OA; conditions: 6 months weekly treatment
# Procedure: To assess safety, blood samples for hematology and biochemistry, as well as urine samples, were repeated on days 44 and 189. The following hematological and biochemical parameters were determined: red blood cell (RBC) count, white blood cell (WBC) total and differential count, platelet (thrombocyte) count and estimate, hematocrit, hemoglobin, and reticulocytes. Amylase, albumin, alkaline phosphatase, alanine-aminotransferase (ALT), aspartate-aminotransferase (AST), calcium, cholesterol, creatinine, creatine kinase, globulin, glucose, γ-Glutamyltransferase (γ-GT), magnesium, phosphorus, potassium, sodium, total bilirubin, total protein, and urea.
# Urine samples were analyzed for blood/erythrocytes/hemoglobin, glucose, ketone bodies, protein, leukocytes, nitrite, specific weight, pH value, bilirubin, and urobilinogen.
# Safety was also assessed by recording any adverse events (AEs) that occurred during the study, regardless of their nature, severity, or whether they were product-related or not.
# [4] = parameters: method as in PMID 34160092; conditions: previously validated method, cited from earlier work
compound,measurement,setting,value
NS(=O)(=O)c1ccc(N2N=C(C(F)(F)F)CC2c2ccc(F)cc2F)cc1 (stereo not shown) [Enflicoxib],Dose proportionality of pharmacokinetics,[1],dose-proportional pharmacokinetics
same,Number of animals presenting AEs (%): Emesis or nausea,[2]; Enflicoxib 2 mg/kg group n=60,3 (5.0)
same,Emesis and nausea: Number of events,[2]; Enflicoxib 2 mg/kg group n=60,3
same,Diarrhoea / pasty stools: Duration range,[2]; Enflicoxib 2 mg/kg group n=60,2 to 8 days
same,Diarrhoea / pasty stools: Mean duration,[2]; Enflicoxib 2 mg/kg group n=60,5.6 days
same,Diarrhoea / pasty stools: Number of events,[2]; Enflicoxib 2 mg/kg group n=60,3
same,Diarrhoea / pasty stools: Treatment needed,[2]; Enflicoxib 2 mg/kg group n=60,1
same,Emesis and nausea: Mean duration,[2]; Enflicoxib 2 mg/kg group n=60,3 days
same,Emesis and nausea: Treatment needed,[2]; Enflicoxib 2 mg/kg group n=60,0
same,Number of animals presenting AEs (%): Abdominal pain,[2]; Enflicoxib 2 mg/kg group n=60,0
same,Number of animals presenting AEs (%): Acute renal failure,[2]; Enflicoxib 2 mg/kg group n=60,0
same,Number of animals presenting AEs (%): Apathy,[2]; Enflicoxib 2 mg/kg group n=60,1 (1.7)
same,Number of animals presenting AEs (%): Constipation,[2]; Enflicoxib 2 mg/kg group n=60,0
same,Number of animals presenting AEs (%): Diarrhoea or pasty stools,[2]; Enflicoxib 2 mg/kg group n=60,4 (6.7)
same,Number of animals presenting AEs (%): Increased salivation,[2]; Enflicoxib 2 mg/kg group n=60,0
same,Number of animals presenting AEs (%): Polydipsia,[2]; Enflicoxib 2 mg/kg group n=60,0
same,Number of animals presenting AEs (%): Total,[2]; Enflicoxib 2 mg/kg group n=60,6 (10%)
same,Number of animals presenting AEs (%): Weight loss,[2]; Enflicoxib 2 mg/kg group n=60,1 (1.7)
same,Emesis and nausea: Duration range,"[2]; Enflicoxib 2 mg/kg group n=60, upper end one animal",1 to 6 days
same,Number of animals presenting AEs (%): Emesis or nausea,[2]; Enflicoxib 4 mg/kg group n=61,7 (11.5)
same,Emesis and nausea: Number of events,[2]; Enflicoxib 4 mg/kg group n=61,9
same,Diarrhoea / pasty stools: Duration range,[2]; Enflicoxib 4 mg/kg group n=61,1 to 4 days
same,Diarrhoea / pasty stools: Mean duration,[2]; Enflicoxib 4 mg/kg group n=61,3 days
same,Diarrhoea / pasty stools: Number of events,[2]; Enflicoxib 4 mg/kg group n=61,7
same,Diarrhoea / pasty stools: Treatment needed,[2]; Enflicoxib 4 mg/kg group n=61,3
same,Emesis and nausea: Duration range,[2]; Enflicoxib 4 mg/kg group n=61,1 to 3 days
same,Emesis and nausea: Mean duration,[2]; Enflicoxib 4 mg/kg group n=61,1.4 days
same,Emesis and nausea: Treatment needed,[2]; Enflicoxib 4 mg/kg group n=61,2
same,Number of animals presenting AEs (%): Abdominal pain,[2]; Enflicoxib 4 mg/kg group n=61,0
same,Number of animals presenting AEs (%): Acute renal failure,[2]; Enflicoxib 4 mg/kg group n=61,0
same,Number of animals presenting AEs (%): Apathy,[2]; Enflicoxib 4 mg/kg group n=61,2 (3.3)
same,Number of animals presenting AEs (%): Constipation,[2]; Enflicoxib 4 mg/kg group n=61,0
same,Number of animals presenting AEs (%): Diarrhoea or pasty stools,[2]; Enflicoxib 4 mg/kg group n=61,5 (8.2)
same,Number of animals presenting AEs (%): Increased salivation,[2]; Enflicoxib 4 mg/kg group n=61,1 (1.6)
same,Number of animals presenting AEs (%): Polydipsia,[2]; Enflicoxib 4 mg/kg group n=61,1 (1.6)
same,Number of animals presenting AEs (%): Total,[2]; Enflicoxib 4 mg/kg group n=61,12 (19.7)
same,Number of animals presenting AEs (%): Weight loss,[2]; Enflicoxib 4 mg/kg group n=61,0
same,Incidence and type of adverse events over time,[3],no tendency to increase over time
same,Hematological and biochemical parameters,[3]; days 44 and 189,generally within the reference ranges
same,Stability in dog plasma,[4]; following 4 freeze–thaw cycles,stable
same,Stability in dog plasma,[4]; nominally −20 °C for 402 days,stable
same,Stability in dog plasma,[4]; room temperature for 4 h,stable
same,Long-term stability in dog plasma samples,[4]; stored at −20 °C,≥ 402 days
